Experiments:
[1] = test system: Neuromuscular Junction of Crayfish; assay: Glutamate blocking effect on neuromuscular junction of crayfish (intracellular recording of the L-glutamate-induced potential); type: cell-based; conditions: for inhibition at 20 µM / inhibition at 0.5 µM: 5 min; for inhibition at 20 µM: inhibition ratio of glutamate potential induced by L-glutamate (1 x 10⁻⁴M), pretreated with test solution (2 x 10⁻⁵ M) for 5 min; for inhibition at 0.5 µM: as Table 1, but concentration of the pretreatment liquid reduced to 5 x 10⁻⁷ M; for glutamate response after washing: treated sample washed with circulating salt solution for 40 min, then glutamate response measured
Experimental: (1) Evaluation of glutamate blocking effect was performed according to the methods of Ishida et al [J. Physiol., 298, 301-319(1980)], and Shinozaki et al[Comp. Biochem. Physiol, 70c, 49-58(1981)]. In more detail, the opener muscle of the first walking leg of the crayfish is employed for the examination described below. A neuromusculor sample is fixed in a vessel, and an aqueous salt solution for crayfish [composition: NaCℓ (195 mM), CaCℓ₂ (18mM), KCℓ (5.4 mM), Tris-maleate buffer (pH 7.5, 10 mM), and glucose (11 mM)] was circulated at a constant rate into the vessel. A glass microelectrode filled with 3M KCℓ solution was inserted into the middle portion of the muscle fibre and the change of potential induced by L-glutamate (1 x 10⁻⁴M) was measured intracellularly. The glutamate blocking effect of the compound to be tested was evaluated by determining an inhibition ratio of glutamate potential protreated by the test solution (2 x 10⁻⁵ M) for 5 min.
(2) The glutamate blocking effects of the compound of the present invention as described in Synthesis Example 3 (i.e. 1-[3-[4-methyl-1-(3-methylbutyl)penty]amino]propyl]piperidine) and the known 5-methyl-1-phenyl-2-(3-piperidinopropylamino)hexan-1-ol were evaluated in the same manner as above except that the concentration of the liquid for the pretreatment was reduced from 2 x 10⁻⁵ M to 5 x 10⁻⁷ M. The results are set forth in Table 2.
(§1) (3) The neuromuscular sample which was fixed in the vessel and treated in the above manner was subsequently washed with the salt solution flowing in the vessel under circulation for 40 min. After such washing was complete, the glutamate response was measured on the wahsed neuromuscular sample. […] Accordingly, it was confirmed that the glutamate blocking action of the aninoalcohol derivative was not kept for sufficient period of time. […] The prolongation of the effect of glutamate response shown in using this alkylenediamine compound was also observed on the alkylenediamine derivatives tested in the (1) above, (4) Acute toxicity (LD₅₀, i.v.) was measured on the alkylenediamine drivatives of the invention and the known aminoalcohol derivative.

[2] = Acute toxicity (LD50, i.v.); conditions: in vivo, iv, read-out: Acute Toxicity (LD₅₀)
Experimental: as §1

[3] = test system: opener muscle of the first walking leg of the crayfish; conditions: dose of 2 x 10⁻⁴M; glutamic acid (1x10⁻⁴M); cited from earlier work

CC(C)CC(=O)OCC(Cc1ccccc1)NCCCN1CCCCC1 (stereo not drawn) [Synthesis Example 9, 3-Phenyl-2-(3-piperidinopropylamino)propyl 3-methylbutanoate]
inhibition at 20 µM [1]: 90%

CC(C)CCCCN(CCCCN1CCCCC1)CCC(C)C [Synthesis Example 38, 1-[4-[N-(3-Methylbutyl)-N-(5-methylhexyl)amino]butyl]piperidine]
inhibition at 20 µM [1]: 96%

CC(C)CCC(CCCc1ccccc1)NCCCN1CCCCC1 (stereo not drawn) [Synthesis Example 13, 1-[3-[4-Methyl-1-(3-phenylpropyl)pentylamino]propyl]piperidine]
inhibition at 20 µM [1]: 96%

c1ccc(OC(CNCCCN2CCCCC2)c2ccccc2)cc1 (stereo not drawn) [Synthesis Example 8, 1-[3-(2-Phenoxy-2-phenylethylamino)propyl]piperidine]
inhibition at 20 µM [1]: 94%

CCCCCCN(CCCN1CCCCC1)CCC(C)C [Synthesis Example 33, 1-[3-[N-hexyl-N-(3-methylbutyl)amino]propyl]piperidine]
inhibition at 20 µM [1]: 83%

CC(C)CCN(CCCc1ccccc1)CCCN1CCCCC1 [Synthesis Example 30, 1-[3-[3-Methyl-N-(3-phenylpropyl)butylamino]propyl]piperidine]
inhibition at 20 µM [1]: 96%

CC(C)CCOC(CNCCCN1CCCCC1)c1ccccc1 (stereo not drawn) [Synthesis Example 7]
inhibition at 20 µM [1]: 96%

CCCCCC(CCC(C)C)NCCCN1CCCCC1 (stereo not drawn) [Synthesis Example 18, 1-[3-[1-(3-Methylbutyl)hexylamino]propyl]piperidine]
inhibition at 20 µM [1]: 97%

CC(C)CCC(Cc1ccccc1)NCCCN1CCCCC1 (stereo not drawn) [Synthesis Example 4, 1-[3-(1-Benzyl-4-methylpentylamino)propyl]piperidine]
inhibition at 20 µM [1]: 99%

CC(C)CCC(CNCCCN1CCCCC1)c1ccccc1 (stereo not drawn) [Synthesis Example 1, 1-[3-(5-Methyl-2-phenylhexylamino)propyl]piperidine]
inhibition at 20 µM [1]: 99%

CCCCCCCN(CCCN1CCCCC1)CCC(C)C [Synthesis Example 34, 1-[3-[N-heptyl-N-(3-methylbutyl)amino]propyl]piperidine]
inhibition at 20 µM [1]: 91%

CCC(CC)C(CCC(C)C)NCCCN1CCCCC1 (stereo not drawn) [Synthesis Example 15, 1-[3-[1-(1-Ethylpropyl)-4-methylpentylamino]propyl]piperidine]
inhibition at 20 µM [1]: 94%

CC(C)CCN(CCCN1CCCCC1)CCOc1ccccc1 [Synthesis Example 28, 1-[3-[3-Methyl-N-(2-phenoxyethyl)butylamino]propyl]piperidine]
inhibition at 20 µM [1]: 72%

CC(C)CCC(CCc1ccccc1)NCCCN1CCCCC1 (stereo not drawn) [Synthesis Example 10, 1-[3-[4-Methyl-1-(2-phenylethyl)pentylamino]propyl]piperidine]
inhibition at 20 µM [1]: 99%

CC(C)CCC(CNCCCN1CCCCC1)Cc1ccccc1 (stereo not drawn) [Synthesis Example 12, 1-[3-(2-Benzyl-5-methylhexylamino)propyl]piperidino]
inhibition at 20 µM [1]: 98%

CC(C)CCC(NCCCN1CCCCC1)C(O)c1ccccc1 (stereo not drawn) [5-Methyl-1-phenyl-2-(3-piperidinopropylamino)hexan-1-ol, reference compound]
inhibition at 0.5 µM [1]: 6%
glutamate response after washing [1]: almost the same level as shown by the sample prior to the treatment
LD50 [2]: 13.6 mg/kg

CC(C)CCC(CCNCCCN1CCCCC1)Cc1ccccc1 (stereo not drawn) [Synthesis Example 11, 1-[3-(3-Benzyl-6-methylheptylamino)propyl]piperidine]
inhibition at 20 µM [1]: 96%

Caroberine
inhibition of depolarization induced by glutamic acid [3]: approx. 30%

CC(C)CCC(CCC(C)(C)C)NCCCN1CCCCC1 (stereo not drawn) [Synthesis Example 19, 1-[3-[4,4-Dimethyl-1-(3-methylbutyl]pentylamino]propyl]piperidine]
inhibition at 20 µM [1]: 88%

CC(C)CCN(CCCN1CCCCC1)CCc1ccccc1 [Synthesis Example 29, 1-[3-[3-Methyl-N-(2-phenylethyl)butylamino]propyl]piperidine]
inhibition at 20 µM [1]: 80%

CC(C)CCCCN(CCCN1CCCCCC1)CCC(C)C [Synthesis Example 41, 1-[3-[N-(3-Methylbutyl)-N-(5-methylhexyl)amino]propyl]perhydroazepin]
inhibition at 20 µM [1]: 100%

CC(C)CCC(CCC(C)C)NCCCN1CCCCC1 [Synthesis Example 3, 1-[3-[4-Methyl-1-(3-methylbutyl)pentylamino]propyl]-piperidine]
inhibition at 0.5 µM [1]: 25%
inhibition at 20 µM [1]: 99%
glutamate response after washing [1]: almost no glutamate response
LD50 [2]: 29.5 mg/kg

COc1ccc([C@@H]2Sc3ccccc3N(CCN(C)C)C(=O)[C@@H]2OC(C)=O)cc1 [Diltiazem]
inhibition of depolarization induced by glutamic acid [3]: approx. 30%

CCCCCC(CCCCC)NCCCN1CCCCC1 [Synthesis Example 2, 1-[3-(1-Pentylhexylamino)propyl]piperidine]
inhibition at 20 µM [1]: 80%
LD50 [2]: 23.3 mg/kg

CC(C)CCC(CCC(C)C)NCCCN1CCCC1 [Synthesis Example 20, 1-[3-[4-methyl-1-(3-methylbutyl)pentylamino]propyl]pyrrolidine]
inhibition at 20 µM [1]: 96%

CC(C)CCN(CCCN1CCCCC1)CCC(C)C [Synthesis Example 26, 1-[3-[N,N-Bis-(3-methylbutyl)amino]propyl]piperidine]
inhibition at 20 µM [1]: 91%
LD50 [2]: 24.8 mg/kg
